Consider one substance from patent US6841361B1, “Methods of producing recombinant insulin from novel fused proteins” (Itoham Foods Inc., priority 1999, dated 2005).

This test can be described thus: Plasma glucose level after subcutaneous injection of insulin in rabbits. The settings on record: rabbit, 0.5 ml of 1 unit/ml. In kind it is in vivo, Japanese Wister rabbit. As to the method:
For each insulin sample, an aliquot was taken from the fractions so that the insulin contents for both kinds of insulin calculated based on the main peak areas became same, and then dried.
The resulting solution (0.5 ml) was subcutaneously injected to the back of a Japanese Wister rabbit (Kbs:JW, […]). After the injection, blood was collected from the anterior auricular vein of the rabbit over a period of time. Each blood sample (0.45 ml) was added with a mix of glycolysis-inhibiting agents (NaF: 12.5 mg/ml, heparin-Na: 125 units/ml, EDTA-2Na: 48 mg/ml) ([…]]) and fully mixed. The mixed solution was centrifuged at 3,000 rpm for 15 min. at 5° C., and the supernatant was used as a plasma sample. For each plasma sample, the plasma glucose level was determined using a biochemical automated analyzer (CIBA-CORNING; Express PLUS), and the plasma insulin level was determined using EIA kit (Wako Pure Chemical Industries, Ltd.).

For the substance “Novolin: a commercially available insulin, Novolin 40, (Novo Nordisk Pharma); insulin fractions re-purified by HPLC before testing”, the “time course of the plasma glucose level after the injection of insulin” value (subcutaneous injection to the back, FIG. 9) is on record as “showed the decrease in plasma glucose level”. The “plasma glucose level compared with ITOHAM insulin” value (subcutaneous, relative to ITOHAM insulin) is on record as “slight lower plasma glucose level”.
